# Bridge positions count the residues as written; N and C are the ends. Square brackets hold non-standard residues; d marks the D form. Peptide text beside a SMILES is read from it. * marks the point of attachment. ξ: configuration not given here. NBD = O=[N+]([O-])c1ccc(*)c2nonc12; dDab = NCC[C@@H](N)C(=O)O; Dab = NCC[C@H](N)C(=O)O; AEEA = NCCOCCOCC(=O)O; ξDab = NCCC(N)C(=O)O
# Legend:
# [1] = test system: panel of bacteria (P. aeruginosa, A. baumannii, S. maltophilia, K. pneumoniae, E. coli, H. influenzae, MRSA, MSSA, S. pneumoniae); assay: In vitro labelling of bacteria by laser scanning confocal microscopy; type: cell-based
# Description: In vitro labelling was assessed on benchtop confocal in the presence of compound with bacteria and labelling was compared to NBD-UBINle which served as a reference control for bacterial labelling. […] For the ex vivo and in vivo ovine lung experiments each compound was assessed in a control lung segment (instilled with 2 ml PBS) or a bacterial segment (instilled with 2 ml of 2 optical density of bacteria). Following bacterial instillation, the compound was administered to the segment of interest and this was imaged by probe based confocal laser endomicroscopy (FCFM).
# [2] = Emission spectra of probes in PBS or DMSO (hydrophobic environment); type: physicochemical; settings: excited at 488 nm; NBD-UBIdend 5 μM, NBD-UBINle 15 μM, NBD-PMX 10 μM
# Description: A) Emission spectra shown for NBD-UBIdend (5 μM) and NBD-UBINle (15 μM) in the presence of PBS or DMSO (hydrophobic environment) when excited at 488 nm wavelength. B) Emission spectra shown for NBD-PMX (10 μM) in the presence of PBS or DMSO (hydrophobic environment) when excited at 488 nm wavelength. The fluorescence of both probes greatly increases under hydrophobic conditions as would be present upon binding to the bacterial membrane target.
# To confirm the fluorescent reporter NBD retains its characteristics when coupled with our peptide moieties we measured the fluorescence of the compounds in conditions to mimic a hydrophobic environment (DMSO).
# human erythrocytes = assay: Haemolysis assay; settings: up to 100 μM; 0.2% Triton-X = 100%
# Description: Positive control was 0.2% Triton-X and values corrected to represent 100% haemolysis for Triton-X.
# Erythrocytes were isolated from freshly drawn, anticoagulated human blood and resuspended to 20 vol % in PBS (pH 7.4). In a 96-well microtiter plate, 100 μl of erythrocyte suspension was added to 100 μl of NLLP solution in PBS (prepared by 1:2 serial dilutions) or 100 μl of PBS in the case of negative controls. One-hundred percent haemolysis wells contained 100 μl of red cell suspension with 100 μl of 0.2 vol % Triton X-100. The plate was incubated for 1 h at 37° C., and then each well was diluted with 150 μl of PBS. The plate was then centrifuged at 1,200 g for 15 min, 100 μl of the supernatant from each well was transferred to a fresh microtiter plate, and A350 was measured. Percentage of haemolysis was determined as (A−A0)/(Atotal−A0)×100, where A is the absorbance of the test well, A0 the absorbance of the negative controls, and Atotal the absorbance of 100% haemolysis wells, all at 350 nm on a Biotek plate reader.
# human neutrophils = assay: Labelling of isolated human neutrophils (confocal); type: cell-based
# Description: All compounds have undergone biological assessment.
# Bacteria were prepared and counterstained with Syto 82 nucleic acid stain (Invitrogen, Calif., USA) in a shaking heat block at 37° C. and 350 rpm for 20 minutes. They were co-incubated with the probe at required concentration in a sealed POC mini chamber, or 8 well confocal chamber. When required the glass coverslip for the POC chamber was coated in fibronectin (for neutrophil experiments) or poly-d-lysine (for bacteria and cell lines) and incubated with cells with one hour at 37° C. to allow adherence prior to bacterial innoculation. Analysis was with ImageJ. Briefly, the Syto channel was automatically thresholded (Huang) and an ROI generated from this. The mean fluorescence intensity on the probe channel within this ROI was quantified. Data presented represents the mean of three separate fields of view.
# [3] = test system: bacteria over lung surfactant constituents; assay: Bacterial labelling in the presence of lung surfactant constituents (confocal); type: cell-based
# Description: Ratio of bacterial fluorescence intensity:surfactant fluorescent intensity quantified from confocal microscopy images.
# In vitro experiments were conducted using lung surfactant constituents to investigate the ability of probes to preferentially detect bacteria in the presence of large amounts of surfactant. […] A suspension of surfactant constituents in buffered saline was prepared (20 mg/ml, 65% dipalmitoylphosphatidylcholine, 30% phosphatidylglycerol, 5% palmitic acid with 1 mg/ml tyloxapol as a spreading agent) and incubated with and without A549 epithelial cell monolayer.
# Surfactant 5 μg 1,2-Dipalmitoyl-sn-glycero-3-phosphocholine (DPPC) and 2.5 μg L-α-Phosphatidyl-DL-glycerol sodium salt (from egg yolk lecithin; PG) were dissolved in 500 μl chloroform and evaporated under nitrogen to a thin lipid film in a round bottom flask. The lipid film was rehydrated with PBS at 48° C. for 1 hour with agitation (750 rpm) to generate multilammelar vesicles (MLV). These were diluted 1:4 for use in confocal experiments.
# [4] = test system: bacteria on human lung tissue; assay: Detection of bacteria in the presence of human lung tissue autofluorescence (FCFM, confocal, FLIM); settings: FCFM and benchtop confocal
# From the text: FIG. 21: Bacteria detected in the presence of human lung tissue autofluorescence. […] B) Live confocal microscopy images (merge) showing merge images of nucleic acid counterstain (red) with no NBD-PMX labelling. Bacteria in right panel can be clearly seen, labelled with NBD-PMX and above the background fluorescence.
# FIG. 24: Fluorescence Life Time Imaging easily distinguishes lung tissue from bacteria. […] Imaging performed using NBD-UBIdend and S. aureus on human lung tissue.
smiles,measurement,setting,value
CC(C)C[C@@H]1NC(=O)[C@@H](Cc2ccccc2)NC(=O)[C@@H](CCN)NC(=O)C(NC(=O)[C@H](CCN)NC(=O)[C@@H](NC(=O)COCCOCCNc2ccc([N+](=O)[O-])c3nonc23)[C@@H](C)O)CCNC(=O)[C@@H]([C@H](C)O)NC(=O)[C@H](CCN)NC(=O)[C@H](CCN)NC1=O (stereo partly drawn) [NBD-PMX] ({NBD-AEEA}-T[Dab][ξDab][dDab][dF]L[Dab][Dab][dT]; lactam 3-C),labelling of Gram-positive bacteria,[1]; 1 μM,minimal/no labelling
same,fluorescence on Gram-negative versus Gram-positive bacteria,"[1]; 1 μM, p<0.05",significantly higher fluorescence on Gram-negative bacteria
same,bacterial labelling,[1]; Pseudomonas aeruginosa (PA) incubated with A549 cells,allows bacterial labelling
same,fluorescence in DMSO compared to PBS,[2],significant increase in fluorescence
same,red cell haemolysis,human erythrocytes,no red cell haemolysis
same,labelling of human neutrophils,human neutrophils,no labelling of human neutrophils or A549 cells
same,selectivity for bacterial labelling over lung surfactant constituents,[3],possess selectivity for bacterial labelling over lung surfactant constituents
same,bacterial:surfactant fluorescence intensity compared with linear NBD-UBINle,[3]; equimolar NBD concentrations,significantly higher bacterial: surfactant intensity than NBD-UBInle
same,detection of bacteria above human lung autofluorescence,[4],demonstrating bacterial signal

# — patent publication US10648979B2, “Molecular probes for detecting gram-negative bacteria in vitro and in vivo” (priority 2014, dated 2020)
